Results as given in US20120245180A1, “COMBINATION” (GlaxoSmithKline LLC, priority 2009, published 2012).
Read-outs that look alike come from different tables or passages of the source.

Tests used:
SNU449 = experiment: Cell growth inhibition assay, hepatocellular carcinoma cell line (Cell Titer Glo); assay type: cell-based, human; conditions: 3 days
Protocol: (§1) Human tumor cell lines from hepatocellular carcinoma (HCC), C3A, Hep3B, HepG2, PLC/PRF/5, SNU182, SNU387, SNU398, SNU423, SNU449 and SNU475 were purchased from the ATCC. Human breast tumor cell lines, HCC2218, HCC1419, BT-474, SK-BR-3, UACC893, JIMT-1, MDA-MB-361, HCC202, MDA-MB-175-VII, HCC1569, HCC1937, HCC38, MDA-MB-157, HCC1954, HCC1500, BT483, KPL-1, SUM225 and ZR-75-1 from ATCC, SUM52 and SUM190 from Asterand, PLC (Detroit Mich.), were cultured in RPMI 1640 medium containing 10% FBS; SKBR3-W13 and BT-474-J4 cultured in RPMI 1640 medium containing 10% FBS and 1 μM lapatinib; KPL4 line was kindly provided by Dr Junichi Kurebayashi (Kawasaki Medical School, Okayama, Japan) and cultured in DMEM containing 5% FBS. JIMT-1 from European Collection of Cell Cultures (UK), is a line derived from a patient clinically resistant to trastuzumab (Herceptin®). SK-BR-3-W13 is a single cell clone isolated by a cloning cylinder after a single treatment of SK-BR-3 cells with 0.5 μM lapatinib. BT-474-J4 is a single cell clone derived from a pool of BT-474 cells that were selected to grow in lapatinib to a concentration of 3 μM.
Cells were seeded in a 96-well tissue culture plate (NUNC 136102) of RPMI medium containing 10% FBS at 500-2,000 cells per well. […] ATP levels were determined by adding Cell Titer Glo® (Promega) according to the manufacturer's protocol. Briefly, Cell Titer Glo® was added to each plate, incubated for 20 minutes then luminescent signal was read on the SpectraMax L plate reader with a 0.5 sec integration time. […]
(§2) Inhibition of cell growth was estimated after treatment with compound or combination of compounds for three days and comparing the signal to cells treated with vehicle (DMSO). Cell growth was calculated relative to vehicle (DMSO) treated control wells. […]
(§3) Combination effects on potency were evaluated using the Combination Index (CI) and Excess Over Highest Single Agent (EHOSA) methods.

HCC1419 = experiment: Cell growth inhibition assay, breast tumor cell line (Cell Titer Glo); assay type: cell-based; conditions: Homo sapiens, 72 h, HCC1419 (HER2+), 3 days
Protocol: as §1
(§4) Cells were seeded in a 96-well tissue culture plate (NUNC 136102) of RPMI medium containing 10% FBS at 500-2,000 cells per well. Approximately 24 hours after plating, cells were exposed to ten, two-fold or three-fold serial dilutions of either Compound A or B or the combination of the two agents at a 2:1 molar ratio (Compounds A and B respectively). In some cases, cells were grown in RPMI media containing 10% FBS and in the presence or absence of 2 ng/mL hepatocyte growth factor (HGF). Cells were incubated in the presence of compounds for 3 days. ATP levels were determined by adding Cell Titer Glo® (Promega) according to the manufacturer's protocol. Briefly, Cell Titer Glo® was added to each plate, incubated for 20 minutes then luminescent signal was read on the SpectraMax L plate reader with a 0.5 sec integration time. All assays were run at least in duplicate.
as §2, with “wells. Concentration of compound that inhibits 50% of control cell growth (IC50) was back-interpolated when y=50% of DMSO treated control wells using nonlinear regression with the equation:” for “wells.”
(§5) where A is the minimum response (ymin), B is the maximum response (Ymax), C is the inflection point of the curve (EC50) and D is the Hill coefficient.
as §3
(§6) DNA Copy number data on the HER2 gene was collected for all breast cancer cell lines using the Affymetrix 500K chip (Affymetrix Inc, Sunnyvale, Calif.). Briefly DNA was extracted from each line, digested with the restriction enzyme Nsp or Sty, ligated to an adaptor and amplified by PCR. After PCR, DNA was fragmented, labeled, denatured, and hybridized to the Affymetrix 500K chip. Upon completion of hybridization, each assay was washed and stained. Image data were acquired. Similarly collected data from a panel 10 diploid non-tumorigenic lymphoblastic cell lines were used to calculate DNA copy number. All ‘SNP Chip’ images ('CEL files'), were extracted, read and normalized using the dChip software package (Lin et al. 2004. Bioinformatics. 20:1233-40). SNP-wise ‘copy-number ratios’ (log2 scale) were calculated for all cancer cell lines using the lymphoblastic reference panel and analyzed by circular binary segmentation to reduce noise (Olshen et al. 2004. Biostatistics. 5:557-72). Cell lines with log2 ratios of HER2>0.65 were considered HER2+.

HCC1500 = experiment: as above; assay type: cell-based; conditions: Homo sapiens, 72 h, HCC1500 (HER2−), 3 days
Protocol: as §1, §4
as §2, with “wells. Concentration of compound that inhibits 50% of control cell growth (IC50) was back-interpolated when y=50% of DMSO treated control wells using nonlinear regression with the equation:” for “wells.”
as §5, §3, §6

HCC1569 = experiment: as above; assay type: cell-based; conditions: Homo sapiens, 72 h, HCC1569 (HER2−), 3 days
Protocol: as §1, §4
as §2, with “wells. Concentration of compound that inhibits 50% of control cell growth (IC50) was back-interpolated when y=50% of DMSO treated control wells using nonlinear regression with the equation:” for “wells.”
as §5, §3, §6

HCC1937 = experiment: as above; assay type: cell-based; conditions: Homo sapiens, 72 h, HCC1937 (HER2−), 3 days
Protocol: as §1, §4
as §2, with “wells. Concentration of compound that inhibits 50% of control cell growth (IC50) was back-interpolated when y=50% of DMSO treated control wells using nonlinear regression with the equation:” for “wells.”
as §5, §3, §6

HCC1954 = experiment: as above; assay type: cell-based; conditions: Homo sapiens, 72 h, HCC1954 (HER2+), 3 days
Protocol: as §1, §4
as §2, with “wells. Concentration of compound that inhibits 50% of control cell growth (IC50) was back-interpolated when y=50% of DMSO treated control wells using nonlinear regression with the equation:” for “wells.”
as §5, §3, §6

HCC38 = experiment: as above; assay type: cell-based; conditions: Homo sapiens, 72 h, HCC38 (HER2−), 3 days
Protocol: as §1, §4
as §2, with “wells. Concentration of compound that inhibits 50% of control cell growth (IC50) was back-interpolated when y=50% of DMSO treated control wells using nonlinear regression with the equation:” for “wells.”
as §5, §3, §6

KPL4 = experiment: as above; assay type: cell-based; conditions: Homo sapiens, 72 h, KPL4 (HER2+), 3 days
Protocol: as §1, §4
as §2, with “wells. Concentration of compound that inhibits 50% of control cell growth (IC50) was back-interpolated when y=50% of DMSO treated control wells using nonlinear regression with the equation:” for “wells.”
as §5, §3, §6

MDA-MB-361 = experiment: as above; assay type: cell-based; conditions: Homo sapiens, 72 h, MDA-MB-361 (HER2+), 3 days
Protocol: as §1, §4
as §2, with “wells. Concentration of compound that inhibits 50% of control cell growth (IC50) was back-interpolated when y=50% of DMSO treated control wells using nonlinear regression with the equation:” for “wells.”
as §5, §3, §6

SUM190 = experiment: as above; assay type: cell-based; conditions: Homo sapiens, 72 h, SUM190 (HER2+), 3 days
Protocol: as §1, §4
as §2, with “wells. Concentration of compound that inhibits 50% of control cell growth (IC50) was back-interpolated when y=50% of DMSO treated control wells using nonlinear regression with the equation:” for “wells.”
as §5, §3, §6

SUM225 = experiment: as above; assay type: cell-based; conditions: Homo sapiens, 72 h, SUM225 (HER2+), 3 days
Protocol: as §1, §4
as §2, with “wells. Concentration of compound that inhibits 50% of control cell growth (IC50) was back-interpolated when y=50% of DMSO treated control wells using nonlinear regression with the equation:” for “wells.”
as §5, §3, §6

SUM52 = experiment: as above; assay type: cell-based; conditions: Homo sapiens, 72 h, SUM52 (HER2−), 3 days
Protocol: as §1, §4
as §2, with “wells. Concentration of compound that inhibits 50% of control cell growth (IC50) was back-interpolated when y=50% of DMSO treated control wells using nonlinear regression with the equation:” for “wells.”
as §5, §3, §6

UACC893 = experiment: as above; assay type: cell-based; conditions: Homo sapiens, UACC-893, 72 h, UACC893 (HER2+), 3 days
Protocol: as §1, §4
as §2, with “wells. Concentration of compound that inhibits 50% of control cell growth (IC50) was back-interpolated when y=50% of DMSO treated control wells using nonlinear regression with the equation:” for “wells.”
as §5, §3, §6

[1] = read-out: Single agent IC50, Compound A
[2] = read-out: Single agent IC50, Compound B

CC(=O)Nc1cccc(-n2c(=O)n(C3CC3)c(=O)c3c(Nc4ccc(I)cc4F)n(C)c(=O)c(C)c32)c1 [Compound A, N-{3-[3-cyclopropyl-5-[(2-fluoro-4-iodophenyl)amino]-6,8-dimethyl-2,4,7-trioxo-3,4,6,7-tetrahydropyrido[4,3-d]pyrimidin-1(2H)-yl]phenyl}acetamide]
IC50 (SNU449; Homo sapiens, SNU-449, 72 h, SNU449, HGF −, read-out: Single agent IC50, Compound A): > 5000 nM
IC50 (SNU449; SNU449, HGF + (2 ng/ml), read-out: Single agent IC50, Compound A): > 5000 nM
IC50 (HCC1419; [1]): > 1000 nM
IC50 (HCC1500; [1]): > 1000 nM
IC50 (HCC1569; [1]): > 1000 nM
IC50 (HCC1937; [1]): > 1000 nM
IC50 (HCC1954; [1]): 1020 ± 839 nM
IC50 (HCC38; [1]): > 1000 nM
IC50 (KPL4; [1]): > 1000 nM
IC50 (MDA-MB-361; [1]): > 1000 nM
IC50 (SUM190; [1]): > 1000 nM
IC50 (SUM225; [1]): > 1000 nM
IC50 (SUM52; [1]): 9 ± 5 nM
IC50 (UACC893; [1]): > 1000 nM

COc1ncc(-c2ccc3nccc(-c4ccnnc4)c3c2)cc1NS(=O)(=O)c1ccc(F)cc1F [Compound B, 2,4-difluoro-N-{2-(methyloxy)-5-[4-(4-pyridazinyl)-6-quinolinyl]-3-pyridinyl}benzenesulfonamide]
IC50 (SNU449; Homo sapiens, SNU-449, 72 h, SNU449, HGF −, read-out: Single agent IC50, Compound B): 24 ± 5 nM
IC50 (HCC1419; [2]): 24 ± 14 nM
IC50 (HCC1500; [2]): 61 ± 36 nM
IC50 (HCC1569; [2]): 76 ± 42 nM
IC50 (HCC1937; [2]): 114 ± 63 nM
IC50 (HCC1954; [2]): 11 ± 3 nM
IC50 (HCC38; [2]): 95 ± 34 nM
IC50 (KPL4; [2]): 3 ± 1 nM
IC50 (MDA-MB-361; [2]): 9 ± 2 nM
IC50 (SUM190; [2]): 6 ± 3 nM
IC50 (SUM225; [2]): 13 ± 14 nM
IC50 (SUM52; [2]): 4 nM
IC50 (UACC893; [2]): 3 ± 3 nM
